Measurements published in patent publication US20160263131A1, “TREATMENT OF HEPATIC FIBROSIS USING AN INHIBITOR OF CBP/CATENIN” (priority 2013, published 2016).

Key:
[1] = test system: NASH mice; experiment: Liver hydroxyproline content in NASH mice; type: in vivo, C57BL/6J mice; settings: μg per mg total protein, mean±SD, Vehicle 0.79±0.19, no significant difference
Experimental: To quantify liver hydroxyproline content, frozen liver samples (35-45 mg) were processed by an alkaline-acid hydrolysis method as follows: the livers were defatted with 100% acetone, dried in the air, dissolved in 2N NaOH at 65° C., and autoclaved at 121° C. for 20 minutes. The lysed samples (400 μL) were acid-hydrolyzed with 400 μL of 6N HCl at 121° C. for 20 minutes, and neutralized with 400 μL of 4N NaOH containing 10 mg/mL activated carbon. AC buffer (2.2M acetic acid/0.48M citric acid, 400 μL) was added to the samples, followed by centrifugation to collect the supernatant. To construct a standard curve of hydroxyproline, serial dilutions of trans-4-hydroxy-Lproline (Sigma-Aldrich) were prepared starting at 16 μg/mL. The prepared samples and standards (each 400 μL) were mixed with 400 μL chloramine T solution (Wako Pure Chemical Industries, Japan) and incubated for 25 minutes at room temperature. The samples were then mixed with Ehrlich's solution (400 μL) and heated at 65° C. for 20 minutes to develop the color. After samples were cooled on ice and centrifuged to remove precipitates, the optical density of each supernatant was measured at 560 nm. The concentrations of hydroxyproline were calculated from the hydroxyproline standard curve. Protein concentrations of liver samples were determined using a BCA protein assay kit (Thermo Fisher Scientific, USA) and used to normalize the calculated hydroxyproline values. Hydroxyproline levels were expressed as μg per mg total protein.

[2] = test system: α-SMA; experiment: Quantitative RT-PCR of liver, α-SMA mRNA, NASH mice; type: in vivo, C57BL/6J mice; settings: 13 weeks of age, mean ± SD
Experimental: Total RNA was extracted from liver samples using RNAiso (Takara Bio, Japan) according to the manufacturer's instructions. One μg of RNA was reverse-transcribed using a reaction mixture containing 4.4 mM MgCl2 (Roche, Switzerland), 40 U RNase inhibitor (Toyobo, Japan), 0.5 mM dNTP (Promega, USA), 6.28 μM random hexamer (Promega), 5× first strand buffer (Promega), 10 mM dithiothreitol (Invitrogen, USA) and 200 U MMLV-RT (Invitrogen) in a final volume of 20 μL. The reaction was carried out for 1 hour at 37° C., followed by 5 minutes at 99° C. Real-time PCR was performed using real-time PCR DICE and SYBR premix Taq (Takara Bio). To calculate the relative mRNA expression level, the expression of each gene was normalized to that of reference gene 36B4 (gene symbol: Rplp0). Information of PCR-primer sets and the plate layout was described in Table 1.

C[C@H]1[C@H]2N(C(=O)CN(C)N2C(=O)NCc2ccccc2)[C@@H](Cc2ccc(OP(=O)(O)O)cc2)C(=O)N1Cc1cccc2cccnc12 [Compound A, 4-(((6S,9S,9aS)-1-(benzylcarbamoyl)-2,9-dimethyl-4,7-dioxo-8-(quinolin-8-ylmethyl)octahydro-1H-pyrazino[2,1-c][1,2,4]triazin-6-yl)methyl)phenyl dihydrogen phosphate]
Liver hydroxyproline content ([1]; high dose 3 mg/kg/day s.c. infusion 9-13 wks): 0.95 ± 0.22 µg/mg | Liver hydroxyproline content ([1]; low dose 1 mg/kg/day s.c. infusion 9-13 wks): 0.90 ± 0.26 µg/mg | α-SMA mRNA expression level (relative, normalized to 36B4) ([2]; high dose 3 mg/kg/day s.c. infusion 9-13 wks, n = 8, Vehicle 3.19 ± 1.81, no significant difference, 3 mg/kg/day): 2.23±1.23 | α-SMA mRNA expression level (relative, normalized to 36B4) ([2]; low dose 1 mg/kg/day s.c. infusion 9-13 wks, n = 8, Vehicle 3.19 ± 1.81, tended to be down-regulated, 1 mg/kg/day): 1.88±0.60
